Laboratory results from the supplement of paper PMC6045584.
± gives the standard deviation of the averaged measurements.

These test systems were tested with O=C(NOCC1CC1)c1ccc(F)c(F)c1Nc1ccc(I)cc1Cl (assay: surviving fraction relative to DMSO-only wells; higher = less growth inhibition). Settings: 50 nM; exposure time: 5 days.
Summary of the method: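 At 250–500 cells per well in 384-well plates, log-phase tumour cell lines were seeded and, 24 hours on, exposed continuously for five days to inhibitors at 0.5, 1, 5, 10, 50, 100, 500 and 1000 nM. Viability readout was CellTiter-Glo luminescence, reported as surviving fraction normalised to the median of DMSO-only wells.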

HCC70 BREAST and HCC78 LUNG are within error of each other in surviving fraction: 0.818 ± 0.041 for the first, 0.898 ± 0.17 for the second.

Compared with HCC202 BREAST, HCC1806 BREAST is lower in surviving fraction: 1.46 ± 0.16 for the first, 1.1 ± 0.058 for the second.

Going from HCC1954 BREAST to HCT15 LARGE INTESTINE, the surviving fraction falls from 0.8718 ± 0.0032 to 0.608 ± 0.037.

Going from HELA CERVIX to HMLE3 BREAST, the surviving fraction falls from 1.02 ± 0.012 to 0.733 ± 0.032.

Compared with HMT3552 BREAST, HOS BONE is lower in surviving fraction: 1.02 for the first, 0.9843 ± 0.006 for the second.

Compared with HOSMNG BONE, HS57T BREAST is lower in surviving fraction: 0.992 ± 0.12 for the first, 0.824 ± 0.025 for the second.

Going from HS578T BREAST to HSSYII SYNOVIAL, the surviving fraction falls from 1.05 ± 0.08 to 0.663 ± 0.059.

HT1080 SOFT TISSUE and HU09 BONE are within error of each other in surviving fraction: 1.08 ± 0.025 for the first, 0.995 ± 0.1 for the second.

First: JIMT1 BREAST
Second: JURKAT HAEMATOPOIETIC AND LYMPHOID TISSUE
The surviving fraction of the first is lower: 0.955 ± 0.013 for the first, 0.98 ± 0.011 for the second.

KPD BONE and LM7 BONE are within error of each other in surviving fraction: 0.986 ± 0.065 for the first, 1.02 ± 0.073 for the second.

MCF7 BREAST and MDAMB134 BREAST are within error of each other in surviving fraction: 0.874 ± 0.029 for the first, 0.809 ± 0.097 for the second.

Compared with MDAMB157 BREAST, MDAMB231 BREAST is higher in surviving fraction: 0.85 ± 0.02 for the first, 0.969 ± 0.024 for the second.

Compared with MDAMB361 BREAST, MDAMB436 BREAST is lower in surviving fraction: 0.963 ± 0.083 for the first, 0.8685 ± 0.0053 for the second.

MDAMB453 BREAST and MDAMB468 BREAST are within error of each other in surviving fraction: 1.03 ± 0.094 for the first, 0.933 ± 0.046 for the second.

Compared with MFM223 BREAST, MG63 BONE is lower in surviving fraction: 1.14 ± 0.037 for the first, 0.935 ± 0.0096 for the second.

First: MHM BONE
Second: NCIH441 LUNG
The surviving fraction of the first is higher: 0.974 ± 0.028 for the first, 0.909 ± 0.013 for the second.

NOS1 BONE and NY BONE are within error of each other in surviving fraction: 0.949 ± 0.065 for the first, 0.97 ± 0.026 for the second.

OS25HAL BONE and OSHN BONE are within error of each other in surviving fraction: 0.955 ± 0.015 for the first, 0.969 ± 0.03 for the second.

Going from PCI30 HEADNECK to RDES SOFT TISSUE, the surviving fraction rises from 0.903 ± 0.015 to 1.28 ± 0.1.

S68 BREAST and SAOS2 BONE are within error of each other in surviving fraction: 0.801 ± 0.18 for the first, 1.02 ± 0.039 for the second.

Test System SCC36 HEADNECK has a surviving fraction of 1.03 ± 0.042.

Same assay, conditions: 100 nM; exposure time: 5 days

HCC70 BREAST and HCC78 LUNG are within error of each other in surviving fraction: 0.773 ± 0.052 for the first, 0.885 ± 0.15 for the second.

HCC202 BREAST and HCC1806 BREAST are within error of each other in surviving fraction: 1.31 ± 0.099 for the first, 1.17 ± 0.048 for the second.

HCC1954 BREAST and HCT15 LARGE INTESTINE are within error of each other in surviving fraction: 0.805 ± 0.081 for the first, 0.914 ± 0.039 for the second.

Going from HELA CERVIX to HMLE3 BREAST, the surviving fraction falls from 1.08 ± 0.055 to 0.745 ± 0.048.

Going from HMT3552 BREAST to HOS BONE, the surviving fraction rises from 0.941 to 0.998 ± 0.018.

Compared with HOSMNG BONE, HS57T BREAST is lower in surviving fraction: 1.02 ± 0.084 for the first, 0.815 ± 0.013 for the second.

HS578T BREAST and HSSYII SYNOVIAL are within error of each other in surviving fraction: 0.892 ± 0.042 for the first, 0.807 ± 0.058 for the second.

HT1080 SOFT TISSUE and HU09 BONE are within error of each other in surviving fraction: 1.04 ± 0.039 for the first, 1.03 ± 0.12 for the second.

Going from JIMT1 BREAST to “JURKAT HAEMATOPOIETIC AND LYMPHOID TISSUE”, the surviving fraction rises from 0.956 ± 0.017 to 1 ± 0.014.

KPD BONE and LM7 BONE are within error of each other in surviving fraction: 0.96 ± 0.032 for the first, 0.943 ± 0.1 for the second.

MCF7 BREAST and MDAMB134 BREAST are within error of each other in surviving fraction: 0.867 ± 0.045 for the first, 0.732 ± 0.11 for the second.

MDAMB157 BREAST and MDAMB231 BREAST are within error of each other in surviving fraction: 0.866 ± 0.037 for the first, 0.912 ± 0.022 for the second.

MDAMB361 BREAST and MDAMB436 BREAST are within error of each other in surviving fraction: 1.03 ± 0.019 for the first, 0.959 ± 0.085 for the second.

MDAMB453 BREAST and MDAMB468 BREAST are within error of each other in surviving fraction: 1.05 ± 0.028 for the first, 0.998 ± 0.038 for the second.

Compared with MFM223 BREAST, MG63 BONE is lower in surviving fraction: 1.12 ± 0.057 for the first, 0.957 ± 0.011 for the second.

Going from MHM BONE to NCIH441 LUNG, the surviving fraction falls from 0.971 ± 0.048 to 0.846 ± 0.031.

NOS1 BONE and NY BONE are within error of each other in surviving fraction: 0.952 ± 0.1 for the first, 0.993 ± 0.028 for the second.

OS25HAL BONE and OSHN BONE are the same in surviving fraction: 0.989 ± 0.012 for the first, 0.989 ± 0.016 for the second.

First: PCI30 HEADNECK
Second: RDES SOFT TISSUE
The surviving fraction of the first is lower: 0.758 ± 0.026 for the first, 1.29 ± 0.085 for the second.

S68 BREAST and SAOS2 BONE are within error of each other in surviving fraction: 0.852 ± 0.13 for the first, 0.986 ± 0.078 for the second.

With SCC36 HEADNECK the surviving fraction was 0.956 ± 0.057.

Same assay, conditions: 500 nM; exposure time: 5 days

Compared with HCC70 BREAST, HCC78 LUNG is lower in surviving fraction: 0.601 ± 0.022 for the first, 0.486 ± 0.058 for the second.

Compared with HCC202 BREAST, HCC1806 BREAST is lower in surviving fraction: 1.37 ± 0.38 for the first, 0.761 ± 0.094 for the second.

Going from HCC1954 BREAST to HCT15 LARGE INTESTINE, the surviving fraction rises from 0.617 ± 0.041 to 0.784 ± 0.0076.

First: HELA CERVIX
Second: HMLE3 BREAST
The surviving fraction of the first is higher: 1.09 ± 0.077 for the first, 0.525 ± 0.03 for the second.

Compared with HMT3552 BREAST, HOS BONE is higher in surviving fraction: 0.92 for the first, 0.951 ± 0.02 for the second.

First: HOSMNG BONE
Second: HS57T BREAST
The surviving fraction of the first is higher: 0.991 ± 0.1 for the first, 0.676 ± 0.021 for the second.

First: HS578T BREAST
Second: HSSYII SYNOVIAL
The surviving fraction of the first is higher: 0.944 ± 0.041 for the first, 0.82 ± 0.038 for the second.

Going from HT1080 SOFT TISSUE to HU09 BONE, the surviving fraction rises from 0.741 ± 0.0079 to 0.894 ± 0.044.

Compared with JIMT1 BREAST, “JURKAT HAEMATOPOIETIC AND LYMPHOID TISSUE” is higher in surviving fraction: 0.8092 ± 0.0039 for the first, 1.03 ± 0.013 for the second.

Compared with KPD BONE, LM7 BONE is lower in surviving fraction: 0.968 ± 0.041 for the first, 0.821 ± 0.011 for the second.

Going from MCF7 BREAST to MDAMB134 BREAST, the surviving fraction falls from 0.849 ± 0.022 to 0.556 ± 0.044.

First: MDAMB157 BREAST
Second: MDAMB231 BREAST
The surviving fraction of the first is higher: 0.787 ± 0.035 for the first, 0.65 ± 0.039 for the second.

Compared with MDAMB361 BREAST, MDAMB436 BREAST is lower in surviving fraction: 1.05 ± 0.072 for the first, 0.944 ± 0.023 for the second.

First: MDAMB453 BREAST
Second: MDAMB468 BREAST
The surviving fraction of the first is higher: 1.02 ± 0.06 for the first, 0.885 ± 0.029 for the second.

Compared with MFM223 BREAST, MG63 BONE is lower in surviving fraction: 1.012 ± 0.0095 for the first, 0.85 ± 0.018 for the second.

First: MHM BONE
Second: NCIH441 LUNG
The surviving fraction of the first is higher: 0.926 ± 0.022 for the first, 0.722 ± 0.023 for the second.

NOS1 BONE and NY BONE are within error of each other in surviving fraction: 0.863 ± 0.054 for the first, 0.93 ± 0.024 for the second.

First: OS25HAL BONE
Second: OSHN BONE
The surviving fraction of the first is lower: 0.943 ± 0.012 for the first, 0.973 ± 0.018 for the second.

Compared with PCI30 HEADNECK, RDES SOFT TISSUE is higher in surviving fraction: 0.433 ± 0.036 for the first, 1.37 ± 0.16 for the second.

First: S68 BREAST
Second: SAOS2 BONE
The surviving fraction of the first is lower: 0.669 ± 0.1 for the first, 0.885 ± 0.031 for the second.

SCC36 HEADNECK was tested, and the surviving fraction was 0.776 ± 0.082.

Same assay, conditions: 1000 nM; exposure time: 5 days

HCC70 BREAST and HCC78 LUNG are within error of each other in surviving fraction: 0.528 ± 0.033 for the first, 0.632 ± 0.097 for the second.

Compared with HCC202 BREAST, HCC1806 BREAST is lower in surviving fraction: 1.57 ± 0.043 for the first, 0.671 ± 0.022 for the second.

First: HCC1954 BREAST
Second: HCT15 LARGE INTESTINE
The surviving fraction of the first is lower: 0.566 ± 0.067 for the first, 0.823 ± 0.05 for the second.

Going from HELA CERVIX to HMLE3 BREAST, the surviving fraction falls from 1.12 ± 0.025 to 0.612 ± 0.001.

Going from HMT3552 BREAST to HOS BONE, the surviving fraction rises from 0.843 to 0.9593 ± 0.0051.

Going from HOSMNG BONE to HS57T BREAST, the surviving fraction falls from 1.06 ± 0.03 to 0.686 ± 0.019.

Compared with HS578T BREAST, HSSYII SYNOVIAL is lower in surviving fraction: 0.936 ± 0.041 for the first, 0.821 ± 0.022 for the second.

Going from HT1080 SOFT TISSUE to HU09 BONE, the surviving fraction rises from 0.617 ± 0.036 to 0.905 ± 0.066.

Going from JIMT1 BREAST to “JURKAT HAEMATOPOIETIC AND LYMPHOID TISSUE”, the surviving fraction rises from 0.7653 ± 0.0068 to 0.994 ± 0.033.

KPD BONE and LM7 BONE are within error of each other in surviving fraction: 0.922 ± 0.055 for the first, 0.853 ± 0.089 for the second.

MCF7 BREAST and MDAMB134 BREAST are within error of each other in surviving fraction: 0.841 ± 0.06 for the first, 0.711 ± 0.15 for the second.

First: MDAMB157 BREAST
Second: MDAMB231 BREAST
The surviving fraction of the first is higher: 0.664 ± 0.013 for the first, 0.52 ± 0.02 for the second.

Going from MDAMB361 BREAST to MDAMB436 BREAST, the surviving fraction falls from 0.972 ± 0.12 to 0.78 ± 0.016.

Going from MDAMB453 BREAST to MDAMB468 BREAST, the surviving fraction falls from 1.06 ± 0.03 to 0.913 ± 0.0098.

First: MFM223 BREAST
Second: MG63 BONE
The surviving fraction of the first is higher: 1.04 ± 0.03 for the first, 0.859 ± 0.022 for the second.

Going from MHM BONE to NCIH441 LUNG, the surviving fraction falls from 0.931 ± 0.032 to 0.757 ± 0.053.

Going from NOS1 BONE to NY BONE, the surviving fraction rises from 0.773 ± 0.016 to 0.921 ± 0.037.

OS25HAL BONE and OSHN BONE are within error of each other in surviving fraction: 0.954 ± 0.024 for the first, 1 ± 0.027 for the second.

Compared with PCI30 HEADNECK, RDES SOFT TISSUE is higher in surviving fraction: 0.402 ± 0.023 for the first, 1.24 ± 0.082 for the second.

Compared with S68 BREAST, SAOS2 BONE is higher in surviving fraction: 0.544 ± 0.096 for the first, 0.908 ± 0.047 for the second.

For SCC36 HEADNECK, the surviving fraction was 0.78 ± 0.087.
